Reference: ChEMBL document CHEMBL2010737, “Synthesis, modeling and functional activity of substituted styrene-amides as small-molecule CXCR7 agonists” (Eur J Med Chem, 2012)
Active and inactive are the calls of the source. No cut-off for these calls is given here.

Tests used:
[1] = biological target: T1, Atypical chemokine receptor 3 (Homo sapiens, UniProt P25106); assay: Displacement of [125I]-CXCL12 from human CXCR7 expressed in HEK293 cells after 3 hrs; assay type: cell-based
[2] = biological target: T1, Atypical chemokine receptor 3; assay: Agonist activity at human CXCR7 expressed in HEK293 cells assessed as reduction of receptor surface expression at 10^-5 M after 1 hr by ELISA based internalization assay; assay type: functional, cell-based
[3] = biological target: T1, Atypical chemokine receptor 3; assay: Agonist activity at human CXCR7 expressed in HEK293T cells co-expressing beta-arrestin2-YFP assessed as beta-arrestin2 recruitment after 1 hr by BRET assay; assay type: functional, cell-based, HEK-293T; conditions: for Activity: HEK-293T
[4] = biological target: T1, Atypical chemokine receptor 3; assay: Agonist activity at human CXCR7 expressed in HEK293 cells assessed as reduction of receptor surface expression after 1 hr by ELISA based internalization assay; assay type: functional, cell-based

T1 sequence (P25106 whole entry): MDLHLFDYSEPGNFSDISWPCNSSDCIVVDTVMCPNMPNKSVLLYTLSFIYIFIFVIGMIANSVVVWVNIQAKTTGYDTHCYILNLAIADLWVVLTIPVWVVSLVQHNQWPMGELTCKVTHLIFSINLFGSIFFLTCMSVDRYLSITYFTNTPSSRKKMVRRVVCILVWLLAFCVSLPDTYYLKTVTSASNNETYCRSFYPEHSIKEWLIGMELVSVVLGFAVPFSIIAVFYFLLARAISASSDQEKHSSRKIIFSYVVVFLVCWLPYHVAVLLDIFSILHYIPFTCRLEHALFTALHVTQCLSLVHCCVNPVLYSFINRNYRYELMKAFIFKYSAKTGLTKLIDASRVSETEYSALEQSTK

Row | Ki [1] [nM] | Structure (SMILES) | other results
1 | 1260 | COc1ccc(/C=C(\C)CN(CCC2CCCN2C)C(=O)c2cc(OC)c(OC)c(OC)c2)c(F)c1 (racemic) | –
2 | 1580 | C/C(=C\c1ccc(F)cc1F)CN(CCC1CCCN1C)C(=O)c1ccc2c(c1)OCCO2 (racemic) | –
3 | 3160 | C/C(=C\c1ccc(F)cc1F)CN(CCC1CCCN1C)C(=O)c1ccc2c(c1)OCO2 (racemic) | –
4 | 100 | COc1ccc(C(=O)N(CCC2CCCN2C)C/C(C)=C/c2cccc(F)c2)cc1OC (racemic) | –
5 | 31.6 | COc1cc(C(=O)N(CCC2CCCN2C)C/C(C)=C/c2ccc(F)cc2F)cc(OC)c1OC (racemic) | –
6 | 5010 | COc1cc(C(=O)N(CCC2CCCN2C)C/C(C)=C/c2cc(F)cc(C(F)(F)F)c2)cc(OC)c1OC (racemic) | Activity [2]: Active; EC50 [3]: 1400 nM
7 | 12.6 | COc1cc(C(=O)N(C/C=C(\C)c2ccccc2)CCC2CCCN2C)cc(OC)c1OC (racemic) | –
8 | 794 | COc1cc(C(=O)N(C/C=C/c2ccccc2)CCC2CCCN2C)cc(OC)c1OC (racemic) | –
9 | 794 | COc1ccc(C(=O)N(CCC2CCCN2C)C/C(C)=C/c2ccccc2)cc1C (racemic) | –
10 | 1580 | COc1cc(C(=O)N(CCCO)C/C(C)=C/c2ccccc2)cc(OC)c1OC | –
11 | 15.8 | COc1cc(C(=O)N(CCC2CCCN2C)C/C(C)=C/c2ccccc2)cc(OC)c1OC (racemic) | –
12 | 79.4 | COc1ccc(C(=O)N(CCC2CCCN2C)C/C(C)=C/c2ccc(F)cc2)cc1OC (racemic) | –
13 | 100 | COc1ccc(C(=O)N(CCC2CCCN2C)C/C(C)=C/c2ccc(F)cc2F)cc1OC (racemic) | –
14 | 5010 | COc1ccc(C(=O)N(CCC2CCCN2C)C/C(C)=C/c2cc(F)cc(C(F)(F)F)c2)cc1OC (racemic) | –
15 | 79.4 | COc1cc(C(=O)N(CCC2CCCN2C)C/C(C)=C/c2cccc(F)c2)cc(OC)c1OC (racemic) | –
16 | 398 | COc1cc(C(=O)N(CCCN2CCOCC2)C/C(C)=C/c2ccccc2)cc(OC)c1OC | –
17 | 1260 | COc1ccc(C(=O)N(CCC2CCCN2C)C/C(C)=C/c2ccccc2)c(OC)c1 (racemic) | –
18 | 25.1 | COc1ccc(C(=O)N(CCC2CCCN2C)C/C(C)=C/c2ccccc2)cc1OC (racemic) | –
19 | 20 | COc1ccc(C(=O)N(CCC2CCCN2C)C/C(C)=C/c2ccccc2F)cc1OC (racemic) | Activity [4]: Dose-dependent effect; EC50 [4]: 23.7 nM; EC50 [3]: 1 nM; Activity [3]: Dose-dependent effect
20 | 794 | C/C(=C\c1ccccc1)CN(CCC1CCCN1C)C(=O)c1ccc2c(c1)OCCO2 (racemic) | –
21 | 7.94 | COc1cc(C(=O)N(CCC2CCCN2C)C/C(C)=C/c2ccccc2F)cc(OC)c1OC (racemic) | Activity [4]: Dose-dependent effect; EC50 [4]: 14.1 nM; EC50 [3]: 1.6 nM; Activity [3]: Dose-dependent effect
22 | 200 | COc1cc(C(=O)N(CCCN2CCCCC2C)C/C(C)=C/c2ccccc2)cc(OC)c1OC (racemic) | –
23 | 50.1 | COc1cc(C(=O)N(CCC2CCCN2C)C/C(C)=C/c2ccc(F)cc2)cc(OC)c1OC (racemic) | –
24 | 1260 | COc1ccc(/C=C(\C)CN(CCC2CCCN2C)C(=O)c2ccc(OC)c(OC)c2)c(F)c1 (racemic) | –
